Assay results as given in US10238633B2, “Methods for treating pulmonary emphysema using substituted 2-Aza-bicyclo[2.2.1]heptane-3-carboxylic acid (benzyl-cyano-methyl)-amides inhibitors of Cathepsin C” (Boehringer Ingelheim International GmbH, priority 2013, dated 2019).
Read-outs that look alike come from different tables or passages of the source.

Columns and labels:
[1] = microsomes
Procedure: (§1) Determination of Metabolic Stability with Human Liver Microsomes
(§2) The metabolic degradation of the test compound is assayed at 37° C. with pooled human liver microsomes. The final incubation volume of 100 μl per time point contains TRIS buffer pH 7.6 (0.1 M), magnesium chloride (5 mM), microsomal protein (1 mg/ml) and the test compound at a final concentration of 1 μM. Following a short preincubation period at 37° C., the reactions are initiated by addition of beta-nicotinamide adenine dinucleotide phosphate, reduced form (NADPH, 1 mM) and terminated by transferring an aliquot into acetonitrile after different time points. Additionally, the NADPH-independent degradation is monitored in incubations without NADPH, terminated at the last time point. The [%] remaining test compound after NADPH independent incubation is reflected by the parameter c(control) (metabolic stability). The quenched incubations are pelleted by centrifugation (10,000 g, 5 min). An aliquot of the supernatant is assayed by LC-MS/MS for the amount of parent compound.
(§3) The half-life (t1/2 INVITRO) is determined by the slope of the semilogarithmic plot of the concentration-time profile. The intrinsic clearance (CL_[sequence]) is calculated by considering the amount of protein in the incubation: CL_[sequence] [μl/min/mg protein]=(In 2/(half-life [min]*protein content [mg/ml]))*1,000.

[2] = tested on: Neutrophil elastase activity in U937 cells; test: Determination of neutrophil elastase activity in U937 cytosolic lysate preparation after incubation with test compound; format: cell-based; conditions: Homo sapiens, U-937, read-out: Reduction of NE-activity in U937 cells IC50
Procedure: Determination of Neutrophil Elastase Activity in U937 Cytosolic Lysate Preparation after Incubation with Test Compound
Optiplate 384F were purchased from PerkinElmer (Prod. No. #6007270). 24 well Nunclon cell culture plates (No. 142475) and 96 well plates (No. 267245) were from Nunc. Dimethylsulfoxid (DMSO) was from Sigma (Prod. No. D8418). Nonidet-P40 (NP40) was from USBiological (Prod. No. N3500)
Substrate, specific for Neutrophil elastase, was from Bachem (MeOSuc-Ala-Ala-Pro-Val-AMC; Prod. No. 1-1270).
Human neutrophil elastase was from Calbiochem (Prod. No. 324681)
Tris-buffer (100 mM Tris; 1M NaCL; pH 7.5)
Tris-buffer+HSA 0.1%; Human Serum Albumin from Calbiochem (Cat#. 126658)
Serine-protease buffer (20 mM Tris; 100 mM NaCL; pH 7.5)+0.1% HSA
Serine protease lysis buffer: 20 mM Tris-HCL; 100 mM NaCl pH 7.5; +0.2% Nonidet-P40;
PBS: phosphate buffered saline, without Ca and Mg, from Gibco
U937 from ECACC (Cat. No. 85011440) cultured in suspension at 37° C. and 5% CO2.
Cell density: 0.2-1 Mio. Cells/ml.
Medium: RPMI1640 GlutaMAX (No. 61870) with 10% FCS from Gibco
Cell Seeding and Treatment:
Compounds in 100% DMSO were diluted in Medium (—FCS) with 10% DMSO and further diluted according to the experiment planned.
20 μl of the compound solution was transferred in the respective wells of the 24 well plate and diluted with 2 ml cell suspension/well containing […] (final concentration of DMSO=0.1%). Compound dilution factor=100
Compounds (up to 7 concentrations) were tested in triplicates with 3 wells for the DMSO 0.1% control, incubated for 48 hours without medium change at 37° C., 5% CO2 and 95% relative humidity.
Cell Harvesting and Cell Lysate:
Transfer the cell suspension in 2.2 ml Eppendorf cups. Separate cells from medium by centrifugation (400×g; 5 min; RT); discard the supernatant. Resuspend in 1 ml PBS; centrifugation (400×g; 5 min; RT); wash cells twice with PBS. Add 100 μl Serin lysis buffer (ice cold) to the cell pellet; resuspend the pellet and store on ice for 15 minutes. Remove debris by centrifugation at 15000×g for 10 min at 4° C. Transfer 80-100 μl lysate supernatant in 96 well plate and store immediately at −80° C.
Neutrophil Elastase Activity Assay:
Frozen lysates were thawn at 37° C. for 10 minutes and stored on ice. Protein content was determined with Bradford protein assay. Lysates were diluted to 0.2-0.5 mg/ml protein in serine protease buffer+HSA.
Standard: NE (100 μg/ml stock solution in Tris-buffer; stored at −80° C.) was diluted in Tris-buffer+HSA to 750 ng/ml, and further serially diluted 1:2 for the standard curve.
Buffer, blank, standard and lysate samples were transferred into 384 well plate
Blank: 5 μl Tris-buffer+10 μl Tris-buffer+HSA+5 μl Substrate
Standard: 5 μl Tris-buffer+10 μl NE (diff. conc.)+5 μl Substrate
Lysate: 5 μl Tris-buffer+10 μl Lysat+[…] Substrate
The increase in fluorescence (Ex360 nm/Em 460 nm) is determined over 30 minutes with a Molecular Device Spectramax M5 Fluorescence Reader. Kinetic Reduction (Vmax units/sec); 4 vmax points. The amount of neutrophil elastase (ng/ml) is calculated using the standard curve and the Spectramax software. The result is interpolated to ng/mg lysate protein using excel formula functions. […] IC50 is calculated using Graphpad Prism; nonlinear fitting (log(inhibitor) vs. response—Variable slope).

[3] = Determination of metabolic stability with human liver microsomes; conditions: pooled human liver microsomes, 37° C., test compound 1 μM, NADPH
Procedure: as §1, §2, §3

IC50 [2] [nM]	In vitro stability in human liver microsome incubations t½ [3] [h]	Compound	In vitro stability in human liver microsome incubations t½ [1] [h]
		N#Cc1ccc(-c2ccc(C[C@@H](C#N)NC(=O)[C@H]3N[C@H]4C[C@@H]3[C@@H]3C[C@@H]34)c(F)c2)s1 [Example 40]	>2.17
		N#C[C@H](Cc1ccc(-c2cc(C(=O)N3CCn4nccc4C3)co2)cc1F)NC(=O)[C@H]1N[C@@H]2CC[C@H]1C2 [Example 240]	1.83
1.7	2.17	N#C[C@H](Cc1ccc(N2CCCN3CCCC3C2)cc1F)NC(=O)[C@H]1N[C@@H]2CC[C@H]1C2 (stereo partly drawn) [Example 271]	
2	2.17	N#C[C@H](Cc1ccc(N2CC3CCN(C4CCOC4)C3C2)cc1F)NC(=O)[C@H]1N[C@@H]2CC[C@H]1C2 (stereo partly drawn) [Example 348]	
